Data set [1] addresses T1, K18PL tau (Homo sapiens, UniProt P10636, P618L).
T1 construct: (K18PL; amino acids 244-369); made in house
The data set is described as follows: Heparin-induced K18PL tau fibrillization assay monitored by ThT fluorescence. Type of data set: biochemical. An outline of the steps:
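K18PL (30 μM stock, with 0.24 μM Alexa Red-labeled K18PL) plus 40 μM heparin and compound, fibrillized 6 h at 37 °C. Fibrils read by ThT (12.5 μM final, in 100 mM glycine pH 8.5, 1 h RT), ex 450/em 510 nm. Percent inhibition scaled between DMSO wells and non-fibrillizing K18 KD control wells.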

Data set [2] has as its target T1, K18PL tau. The data set is described as follows: K18PL tau centrifugation (sedimentation) assay, SDS-PAGE densitometry. Type of data set: biochemical. An outline of the steps: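 Heparin-induced fibrillization of K18PL tau in sodium acetate buffer with test compound; mixtures were centrifuged and soluble versus insoluble K18PL quantified by SDS-PAGE densitometry. A repeat run centrifuged DMSO- and compound-treated mixtures for 30 min at time zero to remove pelletable material before incubation.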

A short description of data set [3]: Turbidimetric solubility in fibrillization buffer. The format is physicochemical. Particulars: 100 mM NaOAc pH 7.0 fibrillization buffer, 1% DMSO. The method, then: Compounds were serially diluted in DMSO to achieve a 2.5 fold dilution series from 20 mM down 8 points to […] on a 384-well master plate (Costar 3672). Aliquots (2 μL) were transferred to a clear 96-well assay plate (Fisher 12-565-501) containing 198 μL fibrillization buffer (100 mM NaOAc pH 7.0) for a 100-fold dilution (200 μM down to 0.3 μM). The plate was incubated with agitation for 2.5 h, and the absorbance at 550, 600, 650 and 700 nm was measured on a Spectramax M5 spectrophotometer. DMSO (1%) in fibrillization buffer served as a control that was subtracted from each data point. The absorbances were averaged and the concentration at which the average absorbance rose above 0.03 AU was an indication of insoluble compound, with solubility limits reported as the previous concentration in the dilution series.

In a further data set the target is T2, full-length tau (tau40) (Homo sapiens, UniProt P10636).
T2 construct: Full length tau (Tau40; amino acids 1-441); made in house
T2 sequence (P10636 1-441 isoform P10636-8): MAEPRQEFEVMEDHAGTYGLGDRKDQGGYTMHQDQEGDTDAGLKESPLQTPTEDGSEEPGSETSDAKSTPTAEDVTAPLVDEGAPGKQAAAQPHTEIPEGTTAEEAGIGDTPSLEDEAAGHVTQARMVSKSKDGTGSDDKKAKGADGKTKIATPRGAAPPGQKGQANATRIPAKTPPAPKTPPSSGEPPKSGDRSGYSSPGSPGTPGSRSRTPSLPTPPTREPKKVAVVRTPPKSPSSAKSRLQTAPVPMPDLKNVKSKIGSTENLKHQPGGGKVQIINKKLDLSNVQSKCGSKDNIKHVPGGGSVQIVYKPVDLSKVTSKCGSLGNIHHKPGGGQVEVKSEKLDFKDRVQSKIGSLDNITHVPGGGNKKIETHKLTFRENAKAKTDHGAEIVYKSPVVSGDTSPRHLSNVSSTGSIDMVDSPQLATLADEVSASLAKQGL
As to the kind of experiment: Tau40 fibrillization sedimentation assay. The format is biochemical. To be noted: SDS-PAGE of soluble and insoluble fractions after centrifugation. The method, then: The determination of compound-induced effects on the amount of tau that remains soluble upon centrifugation, and EM visualization of tau species following incubation with test compounds, were as previously described (Crowe, A., Ballatore, C., Hyde, E., Trojanowski, J. Q., and Lee, V. M. Y. (2007) Biochemical and Biophysical Research Communications 358, 1-6). […]

A short description of data set [4]: Full PK analysis and oral administration, brain and plasma levels. The format is in vivo, mice. Particulars: oral 5 mg/Kg, FIGS. 6B and 6C; 5 mg/kg. The method, then: FIG. 6. (A) Brain and plasma level of F4 (CNDR-51362) after i.v. administration at 2 mg/Kg; (B) Brain and plasma level of F4 (CNDR-51362) after oral administration at 5 mg/Kg; (C) Brain and plasma level of F3 (CNDR-51349) after oral administration at 5 mg/Kg
(§1) Test compounds underwent preliminary evaluations of brain penetration, in which 5 mg/Kg of each compound was administered intraperitoneally (i.p.) to a group of three normal mice; drug levels in brain and plasma were determined at a single time-point (1 h) by LC-MS/MS using pre-validated calibration curves. […] However, both esters appeared to have relatively short half-lives in plasma, as indicated by the limited amount of parent drug detected after 1 h from administration of the compounds. […] CNDR-51362 was selected for full PK analysis in which brain and plasma drug levels were determined at six time points (i.e., 30 min, 1 h, 2 h, 4 h, 8 h, and 16 h). The results from this experiment, illustrated in FIG. 6A, confirmed that the total B/P exposure ratio over 16 h is 1.6. […] Finally, in order to investigate the potential for ATPZ congeners to be orally administered, we evaluated brain and plasma level of CNDR-51362 and CNDR-51349 after oral administration of 5 mg/Kg.
(§2) Brain tissue was homogenized in 10 mM ammonium acetate, pH 5.7 (1:2; w/v) using a handheld sonic homogenizer. Plasma was obtained from blood that was collected into a 1.5 mL tube containing 0.5M EDTA solution and subjected to centrifugation for 10 min. at 4500 g at 4° C. Aliquots (50 μL) of brain homogenate or plasma were mixed with 0.2 mL of acetonitrile, centrifuged at 15,000 g, and the resulting supernatants were used for subsequent LC-MS/MS analysis. The LC-MS/MS system was comprised of an Aquity HPLC and a TQ MS that was controlled using MassLynx software (Waters Corporation, Milford, Mass., USA). Compounds were detected using multiple reaction monitoring (MRM) of their specific collision-induced ion transitions. Samples (5 μL) were separated on an Aquity BEH C18 column (1.7 μm, 2.1×50 mm) at 35° C. Operation was in positive electrospray ionization mode, with mobile phase A of 0.1% (v/v) formic acid, and B of either acetonitrile or methanol with 0.1% (v/v) formic acid at a flow rate of 0.6 mL/min using a gradient from 5% to 95% B over two min., followed by wash and re-equilibration steps. The MS was operated with a desolvation temperature of 450° C. and a source temperature of 150° C. Desolvation and source nitrogen gas flows were 900 L/hr and 50 L/hr, respectively. Source and MS/MS voltages were optimized for each compound using the MassLynx auto tune utility. Standard curves were generated for each compound from brain homogenate and plasma samples that had compound added at 4, 40, 400 and 4000 ng/mL and extracted as above. Peak areas were plotted against concentration and a 1/x weighted linear regression curve was used to quantify the tissue-derived samples using the average peak area from triplicate injections.

A short description of data set [5]: Brain and plasma drug levels 1 h after i.p. administration (LC-MS/MS). The format is in vivo. Particulars: mice. The method, then:
as §1, §2

For the next data set, the target named is T3, Aβ(1-42) (Homo sapiens, UniProt P05067).
T3 construct: Synthetic Aβ(1-42) peptide (rPeptide); purchased rPeptide
T3 sequence (P05067 672-713 limits assumed): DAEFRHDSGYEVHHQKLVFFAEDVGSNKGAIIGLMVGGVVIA
The data set is described as follows: Aβ(1-42) fibrillization assay (ThT). To be noted: Table 3; highest tested concentration (80 μM); read-out: Aβ42 ThT Assay % Inhib. Type of data set: biochemical.

A further data set addresses T4, Tau40 (Homo sapiens, UniProt P10636).
T4 construct: Full length tau (Tau40; amino acids 1-441); made in house
As to the kind of experiment: SEC of Tau40 fibrillization post-centrifugation supernatants. Type of data set: biochemical. Particulars: tau40 fibril assembly with 5b relative to untreated fibrillization reaction, FIG. 2. The method, then:
Tau40 (50 μM) and heparin (20 μM) were incubated in a PCR tube with or without the compound 5b (100 μM) at 37° C. for 5 days in a final volume of 100 μl of […] sodium acetate buffer, pH 7.0. In the absence of compound, tau40 fibrillization is complete under these conditions, as determined by ThT fluorescence and centrifugation assays. A non-assembly control reaction was also prepared as above with Tau40 and 5b in the absence of heparin. The completed reactions were centrifuged at 40,000 g for 30 minutes to sediment fibrils and the supernatants were applied to a Superdex 200 10/300 column (GE Healthcare) employing an Äkta Basic FPLC unit (GE Healthcare) with a flow rate of 0.4 ml/minute. Tau elution was monitored by absorbance at 280 nm. Under these chromatography conditions, monomeric tau can be separated from oligomeric species (Li, W. K. and Lee, V. M. Y. (2006) Biochemistry 45, 15692-15701).

Data set [6] has as its target T5, K18 tau-mediated tubulin polymerization (Homo sapiens, UniProt P10636).
T5 construct: (K18PL; amino acids 244-369)
The data set is described as follows: Tau-mediated MT assembly assay (K18 tau, tubulin). Type of data set: biochemical, bovine (tubulin). Particulars: 50 μM compound, FIG. 1A.
Protocol: The effect of compounds on tau-mediated MT assembly was essentially as described (Hong, M., Zhukareva, V., Vogelsberg-Ragaglia, V., Wszolek, Z., Reed, L., Miller, B. I., Geschwind, D. H., Bird, T. D., McKeel, D., Goate, A., Morris, J. C., Wilhelmsen, K. C., Schellenberg, G. D., Trojanowski, J. Q., and Lee, V. M. Y. (1998) Science 282, 1914-1917), adapted to a 384-well plate. […] Lyophilized bovine brain tubulin (Cytoskeleton Inc.) was reconstituted in RAB (100 mM MES, pH 6.9; 1 mM EDTA; 0.5 mM MgSO4) at a concentration of 10 mg/ml. Compounds (50 μM) were added to K18 tau (40 μM) in RAB and pre-incubated at room temperature for 60 minutes. To initiate the MT assembly reaction, 8.25 μl per well of 10 mg/ml tubulin was dispensed on a UV-clear 384-well plate (Corning #3675), followed by 1.0 μl of 100 mM GTP in RAB and 41.25 μl of the compound:tau mixture. […] The plate was incubated in a Spectramax M5 plate reader at 37° C. and the absorbance at 340 nm was read every minute for 45 minutes.

The values below come from US20130029983A1, “AMINOTHIENOPYRIDAZINE INHIBITORS OF TAU ASSEMBLY” (priority 2009, published 2013).

What is called IC50 is the concentration that gives 50% inhibition.

Like-named read-outs stand apart in the source and are kept apart here.

T1 sequence (P10636 561-686 P618L): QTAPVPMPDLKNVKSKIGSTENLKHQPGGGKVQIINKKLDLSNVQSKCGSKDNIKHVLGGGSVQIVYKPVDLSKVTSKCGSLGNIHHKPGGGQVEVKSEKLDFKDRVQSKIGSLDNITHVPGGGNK
T4 sequence (P10636 1-441 isoform P10636-8): as the sequence (P10636 1-441 isoform P10636-8) above
T5 sequence (P10636 561-686): as the sequence (P10636 561-686 P618L) above, with L58P counted along it

With `CC(C)NC(=O)c1nn(-c2ccc(Cl)cc2)c(=O)c2c(N)scc12` [CNDR-51349, 5-Amino-3-(4-chlorophenyl)-N-isopropyl-4-oxo-3,4-dihydrothieno[3,4-d]pyridazine-1-carboxamide], the half-inhibitory concentration (IC50) on K18PL tau [1] (Table 5, read-out: K18PL (ThT) IC50 value) worked out at 0.7 µM. Also, the Emax on K18PL tau [1] (Table 5, read-out: K18PL (ThT) maximal percent inhibition achieved in the assay) is 88%; on K18PL tau [2] (SDS-PAGE of soluble and insoluble fractions after centrifugation, read-out: K18PL Sed. Assay, maximal percent inhibition of K18PL fibrillization) it was 65%; at full-length tau (tau40) (read-out: Tau40 Sed. Assay, maximal percent inhibition of tau40 fibrillization), 50 to 60%. In addition, the “Water Solubility” value in data set [3] came out at 32 µM. Besides, the “Tau40 Sed. Assay, maximal percent inhibition of tau40 fibrillization” value at full-length tau (tau40) amounted to 45%. For the same molecule, the “Brain concentration after oral administration” value in data set [4] was “significant brain concentrations”. The “B/P, ratio between brain/plasma drug level” value in data set [5] (1 h after i.p. 5 mg/Kg) stood at 2.2. This molecule also yielded a Brain level in [5] (1 h after i.p. 5 mg/kg, listed as CNDK-51349, 5 mg/kg) of 1100 ng/g.

As to `CCOC(=O)c1nn(-c2ccc(OC)cc2)c(=O)c2c(N)scc12` [Compound 5b], the inhibition at 80 µM came out at 86% on K18PL tau [1] (Table 3, highest tested concentration (80 μM), read-out: Tau ThT Assay % Inhib.) and 28% at Aβ(1-42). Further, on K18PL tau [1] (Table 3, logarithm of IC50, K18PL tau ThT fluorescence inhibition, NC = not calculated due to insufficient activity, read-out: Tau ThT Assay Log IC50 (converted)), the concentration for half-maximal inhibition (IC50) is 5.01 µM. For the same molecule, the “Tau Cent. Assay % Soluble” value on K18PL tau [2] (Table 3, K18PL tau centrifugation assay) is 64%. Moreover, on Tau40, the “Monomeric tau in post-centrifugation supernatant (SEC)” value is “appreciable increase in the amount of monomeric tau”.

Consider `CN(C)c1ccc2nc3ccc(=[N+](C)C)cc-3sc2c1` [methylene blue], for which the “Effect on tau-mediated tubulin polymerization (MT formation)” value in [6] was “significant diminution”.
